Assay results: patent US20100160454A1, “ANTIMICROBIAL AGENTS, COMPOSITIONS AND PRODUCTS CONTAINING THE SAME, AND METHODS OF USING THE COMPOSITIONS AND PRODUCTS” (Eastman Chemical Company, priority 2008, published 2010)

How the values were obtained:
Type in all cases: cell-based
[1] = test system: Candida albicans ATCC 10231; experiment: Determination of MIC and MLC in test broth; settings: Candida albicans ATCC 10231, 30-day subculture
Procedure: (§1) Two antimicrobial endpoints were investigated. The minimum inhibitory concentration (MIC), which identifies the lowest concentration of test material at which growth for a specific organism is inhibited (by a minimum of 3 log units), reflects “biostatic activity”. The minimum lethal concentration (MLC), or lowest concentration that kills the organism and at which subculturing with growth is not possible, reflects “biocidal activity”. 1,4-CHDM and propylene glycol (PG) were added to previously sterilized screw-cap glass tubes and diluted with Peptone Water Broth with 2 wt % Dextrose (=test broth) to the following dilutions (weight percent): 0.05, 0.075, 0.125, 0.25, 0.5, 0.75, 1.25, 2.5, 5.0, 7.5, 10.0, 15.0, 20.0.
(§2) Each of 12 sets of the above test tubes were challenged with specific organisms (see Table 5) to produce a contamination of between 1.0×10^5 cfu/g and 1.0×10^6 cfu/g in the test broth to which no 1,4-CHDM or propylene glycol had been added. These challenge organisms were prepared in TSB broth, allowed to grow for 72 hours at 35° C.+/−2° C., centrifuged at 2500 rpm for 5 minutes, and the supernatant broth was removed. The microbial pellet was then re-diluted with sterile buffered water to a turbidity that matched previous 1.0×10^6 cfu/g concentrations of that organism's specific growth curve. This challenge was repeated on day 3. Plate counts of both challenges enumerated to within 1.0×10^5+/−5,000 cfu/g after 7 days incubation at 35° C.+/−2° C.
(§3) These tubes were mixed well by inversion (minimum of 25 inversions) and incubated at 35° C.+/−2° C. The tubes were inverted again (minimum of 25 times) on the third and seventh day of incubation and prior to each subculture.
(§4) These subcultures were incubated under optimal conditions and nutrition for no less than 5 days. Subcultures of 0.1 ml, undiluted and diluted 1:10, 1:100, . . . , and 1:10,000, were transferred to plates using the spread plate method onto Plate Count Agar; and SAB Dextrose Agar in addition for the Candida and Aspergillus species; and incubated as follows: 35° C.+/−2° C. for the Plate Count Agar and 22° C.+/−2° C. for the SAB Dextrose plates of Candida albicans and Aspergillus niger. Negative results were not reported before 7 days incubation and counts were performed after no less than 5 days incubation. Counts of Candida and Aspergillus species were made on the agar representing the highest count observed, usually the SAB Dextrose.

[2] = test system: Escherichia coli ATCC 25922; experiment: Determination of MIC and MLC in test broth; settings: Escherichia coli ATCC 25922, 30-day subculture
Procedure: as §1, §2, §3, §4

[3] = test system: Penicillium notatum ATCC 36740; experiment: Determination of MIC and MLC in test broth; settings: Penicillium notatum ATCC 36740, 30-day subculture
Procedure: as §1, §2, §3, §4

[4] = test system: Pseudomonas aeruginosa ATCC 27853; experiment: Determination of MIC and MLC in test broth; settings: Pseudomonas aeruginosa ATCC 27853, 30-day subculture
Procedure: as §1, §2, §3, §4

[5] = test system: Staphylococcus aureus ATCC 25923; experiment: Determination of MIC and MLC in test broth; settings: Staphylococcus aureus ATCC 25923, 30-day subculture
Procedure: as §1, §2, §3, §4

[6] = test system: Malassezia furfur (ATCC 96809); experiment: Challenge testing against pathogenic fungi, growth rating in broth tubes; set-up: key: 0: No visible growth; 1: Some growth in tube; 2: Moderate growth in tube; 3: Good growth in tube; 4: Extreme growth in tube
Procedure: (§5) Both Microsporum canis and Trichophyton rubrum were grown on Sabouraud dextrose broth, while Malassezia fufur was grown in Sabouraud dextrose broth supplemented with 2% (v/v) of olive oil and 0.2% (v/v) of Tween™ 80; incubation was at 22°±2° C. under continuous agitation by stirring for 10 days. The organisms were grown to a density of between 1.0×10^3 to 1.0×10^4 cfu/g. The actual inoculation cell density of these challenges were determined by diluting in sterile buffer water and (spread-plate method) plating for enumeration.
(§6) Challenge organisms were used to inoculate tubes of 1,4-CHDM-D90 test concentrations prepared in Sabouraud dextrose broth (or Sabouraud dextrose broth supplemented with olive oil-Tween™ 80 with M. furfur). The inoculations were in the amount of 1.5 mL aliquots of each culture with static incubation at 22±2° C. Subcultures were made at 3-, 14- and 30-day increments. All challenges were conducted in triplicate. In the case of M. canis, the growth response was assessed by the visual presence/absence of growth in the tubes; in the case of T. rubrum, a respiratory (redox) dye (0.2% w/v aqueous INT solution: 2-[4-iodophenyl)-3-4-nitrophenyl]-5-phenyl tetrazolium chloride) was added to the tubes, turning red if the organism was viable; and, finally, in the case of M. furfur, the growth response was assessed based upon pellicle formation in the tubes at the meniscus. The test formulations and challenge test results, as well as 30-day MICs (Minimum Inhibitory Concentration), are in Tables 7-9 for the three organisms using the following growth rating system:
(§7) • 0: No visible growth • 1: Some growth in tube • 2: Moderate growth in tube • 3: Good growth in tube • 4: Extreme growth in tube

[7] = test system: Microsporum canis (ATTC 9084); experiment: as above; set-up: key: 0: No visible growth; 1: Some growth in tube; 2: Moderate growth in tube; 3: Good growth in tube; 4: Extreme growth in tube
Procedure: as §5, §6, §7

[8] = test system: Trichophyton rubrum (ATCC 10218); experiment: as above; set-up: key: 0: No visible growth; 1: Some growth in tube; 2: Moderate growth in tube; 3: Good growth in tube; 4: Extreme growth in tube
Procedure: as §5, §6, §7

For `OCC1CCC(CO)CC1` (stereo not shown) [1,4-CHDM, 1,4-cyclohexanedimethanol], the “MIC 30 DAYS” value [1] was 2.5 wt %, the “MLC 30 DAYS” value [1] was 20 wt % and the “MIC 30 DAYS” value [2] was 2.5 wt %. For the same compound, the “MLC 30 DAYS” value [2] was >20 wt %, the “MIC 30 DAYS” value [3] was 5 wt % and the “MLC 30 DAYS” value [3] was >20 wt %. The “MIC 30 DAYS” value [4] was 2.5 wt %, the “MLC 30 DAYS” value [4] was 20 wt % and the “MIC 30 DAYS” value [5] was 5 wt %. For the same compound, the “MLC 30 DAYS” value [5] was >20 wt %, the “M. furfur growth rating, 3 day” value ([6]; 0.5% weight/volume) was 0 and the “M. furfur growth rating, 14 day” value ([6]; 0.5% weight/volume) was 1. For the same compound, the “M. furfur growth rating, 30 day” value ([6]; 0.5% weight/volume) was 2, the “M. furfur growth rating, 3 day” value ([6]; 1.25% weight/volume) was 0 and the “M. furfur growth rating, 14 day” value ([6]; 1.25% weight/volume) was 0. For the same compound, the “M. furfur growth rating, 30 day” value ([6]; 1.25% weight/volume) was 0, the “M. furfur growth rating, 3 day” value ([6]; 2.5% weight/volume) was 0 and the “M. furfur growth rating, 14 day” value ([6]; 2.5% weight/volume) was 0. The “M. furfur growth rating, 30 day” value ([6]; 2.5% weight/volume) was 0, the “M. furfur growth rating, 3 day” value ([6]; 5.0% weight/volume) was 0 and the “M. furfur growth rating, 14 day” value ([6]; 5.0% weight/volume) was 0. For the same compound, the “M. furfur growth rating, 30 day” value ([6]; 5.0% weight/volume) was 0, the “M. canis growth rating, 3 day” value ([7]; 0.5% weight/volume) was 2 and the “M. canis growth rating, 14 day” value ([7]; 0.5% weight/volume) was 1. For the same compound, the “M. canis growth rating, 30 day” value ([7]; 0.5% weight/volume) was 1, the “M. canis growth rating, 3 day” value ([7]; 1.25% weight/volume) was 2 and the “M. canis growth rating, 14 day” value ([7]; 1.25% weight/volume) was 1. For the same compound, the “M. canis growth rating, 30 day” value ([7]; 1.25% weight/volume) was 1, the “M. canis growth rating, 3 day” value ([7]; 2.5% weight/volume) was 2 and the “M. canis growth rating, 14 day” value ([7]; 2.5% weight/volume) was 0. For the same compound, the “M. canis growth rating, 30 day” value ([7]; 2.5% weight/volume) was 0, the “M. canis growth rating, 3 day” value ([7]; 5.0% weight/volume) was 0 and the “M. canis growth rating, 14 day” value ([7]; 5.0% weight/volume) was 0. The “M. canis growth rating, 30 day” value ([7]; 5.0% weight/volume) was 0, the “T. rubrum growth rating, 3 day” value ([8]; 0.5% weight/volume) was 1 and the “T. rubrum growth rating, 14 day” value ([8]; 0.5% weight/volume) was 1. For the same compound, the “T. rubrum growth rating, 30 day” value ([8]; 0.5% weight/volume) was 1, the “T. rubrum growth rating, 3 day” value ([8]; 1.25% weight/volume) was 0 and the “T. rubrum growth rating, 14 day” value ([8]; 1.25% weight/volume) was 0. The “T. rubrum growth rating, 30 day” value ([8]; 1.25% weight/volume) was 0, the “T. rubrum growth rating, 3 day” value ([8]; 2.5% weight/volume) was 0 and the “T. rubrum growth rating, 14 day” value ([8]; 2.5% weight/volume) was 0. The “T. rubrum growth rating, 30 day” value ([8]; 2.5% weight/volume) was 0, the “T. rubrum growth rating, 3 day” value ([8]; 5.0% weight/volume) was 1 and the “T. rubrum growth rating, 14 day” value ([8]; 5.0% weight/volume) was 0. For the same compound, the “T. rubrum growth rating, 30 day” value ([8]; 5.0% weight/volume) was 0.

In the case of `CC1(C)C(O)C(C)(C)C1O` (stereo not shown) [TMCBD, 2,2,4,4-tetramethyl-1,3-cyclobutanediol], the “M. furfur growth rating, 3 day” value ([6]; 0.5% weight/volume) is reported as 0, the “M. furfur growth rating, 14 day” value ([6]; 0.5% weight/volume) is reported as 1 and the “M. furfur growth rating, 30 day” value ([6]; 0.5% weight/volume) is reported as 2. For the same compound, the “M. furfur growth rating, 3 day” value ([6]; 1.25% weight/volume) was 0, the “M. furfur growth rating, 14 day” value ([6]; 1.25% weight/volume) was 1 and the “M. furfur growth rating, 30 day” value ([6]; 1.25% weight/volume) was 2. The “M. furfur growth rating, 3 day” value ([6]; 2.5% weight/volume) was 0, the “M. furfur growth rating, 14 day” value ([6]; 2.5% weight/volume) was 0 and the “M. furfur growth rating, 30 day” value ([6]; 2.5% weight/volume) was 0. The “M. furfur growth rating, 3 day” value ([6]; 5.0% weight/volume) was 0, the “M. furfur growth rating, 14 day” value ([6]; 5.0% weight/volume) was 0 and the “M. furfur growth rating, 30 day” value ([6]; 5.0% weight/volume) was 0. For the same compound, the “M. canis growth rating, 3 day” value ([7]; 0.5% weight/volume) was 2, the “M. canis growth rating, 14 day” value ([7]; 0.5% weight/volume) was 1 and the “M. canis growth rating, 30 day” value ([7]; 0.5% weight/volume) was 1. The “M. canis growth rating, 3 day” value ([7]; 1.25% weight/volume) was 2, the “M. canis growth rating, 14 day” value ([7]; 1.25% weight/volume) was 1 and the “M. canis growth rating, 30 day” value ([7]; 1.25% weight/volume) was 0. For the same compound, the “M. canis growth rating, 3 day” value ([7]; 2.5% weight/volume) was 2, the “M. canis growth rating, 14 day” value ([7]; 2.5% weight/volume) was 1 and the “M. canis growth rating, 30 day” value ([7]; 2.5% weight/volume) was 1. The “M. canis growth rating, 3 day” value ([7]; 5.0% weight/volume) was 2, the “M. canis growth rating, 14 day” value ([7]; 5.0% weight/volume) was 1 and the “M. canis growth rating, 30 day” value ([7]; 5.0% weight/volume) was 1. For the same compound, the “T. rubrum growth rating, 3 day” value ([8]; 0.5% weight/volume) was 1, the “T. rubrum growth rating, 14 day” value ([8]; 0.5% weight/volume) was 1 and the “T. rubrum growth rating, 30 day” value ([8]; 0.5% weight/volume) was 0. The “T. rubrum growth rating, 3 day” value ([8]; 1.25% weight/volume) was 0, the “T. rubrum growth rating, 14 day” value ([8]; 1.25% weight/volume) was 0 and the “T. rubrum growth rating, 30 day” value ([8]; 1.25% weight/volume) was 1. The “T. rubrum growth rating, 3 day” value ([8]; 2.5% weight/volume) was 0, the “T. rubrum growth rating, 14 day” value ([8]; 2.5% weight/volume) was 0 and the “T. rubrum growth rating, 30 day” value ([8]; 2.5% weight/volume) was 0. For the same compound, the “T. rubrum growth rating, 3 day” value ([8]; 5.0% weight/volume) was 0, the “T. rubrum growth rating, 14 day” value ([8]; 5.0% weight/volume) was 0 and the “T. rubrum growth rating, 30 day” value ([8]; 5.0% weight/volume) was 0.
